{"source": "paper PMC9225741", "about": "“Inhibition of Streptococcus mutans adhesion and biofilm formation with small-molecule inhibitors of sortase A from Juniperus chinensis” (Journal of Oral Microbiology, 2022)", "key": {"S. mutans OMZ65": {"system": "S. mutans OMZ65", "assay": "Antibacterial activity assay (MIC, broth dilution)", "assay_type": "cell-based, Streptococcus mutans", "conditions": "S. mutans OMZ65, BHI broth, 16–20 h, 37°C, read-out: MIC (minimum inhibitory concentration)", "description": "Antibacterial activities of isolated compounds were determined according to a previously described method based on Clinical and Laboratory Standards Institute guidelines. Briefly, 5 mL of S. mutans OMZ65 was inoculated into brain heart infusion (BHI) broth, incubated aerobically for 16 h at 37°C, and the bacterial density was adjusted based on turbidity to match the 0.5 MacFarland standard at 625 nm. In each well of a 96-well plate, 20 μL of twofold diluted test compounds in 10% DMSO was added to 180 μL of cell culture in BHI broth and incubated for 16–20 h at 37°C. The final concentration of cells was approximately 5 × 10^5 colony-forming units (CFU)/mL. The minimal inhibitory concentration (MIC) values were identified as the lowest concentration that inhibited cell growth. Ampicillin was used as an antibacterial positive control."}, "S. mutans SrtA": {"biological_target": "T1, S. mutans SrtA (Streptococcus mutans, UniProt Q8CM62)", "T1 construct": "made in house; host or cells: Escherichia coli", "T1 sequence (Q8CM62 entry or part of it)": "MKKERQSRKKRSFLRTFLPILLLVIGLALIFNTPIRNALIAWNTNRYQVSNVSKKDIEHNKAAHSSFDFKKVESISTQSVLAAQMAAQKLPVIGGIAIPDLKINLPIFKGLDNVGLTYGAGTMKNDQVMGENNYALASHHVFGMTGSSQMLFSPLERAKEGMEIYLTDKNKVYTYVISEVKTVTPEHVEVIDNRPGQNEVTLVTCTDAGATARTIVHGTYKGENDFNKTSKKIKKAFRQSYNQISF", "assay": "biochemical", "assay_type": "biochemical, Streptococcus mutans OMZ65", "description": "Recombinant SrtA protein was prepared following previously described procedures. S. mutans OMZ65 isolated from the human oral cavity was provided by Seoul National University School of Dentistry. The srtA genes derived from S. mutans OMZ65 were expressed in Escherichia coli and SrtA was purified through metal chelate affinity chromatography on Ni-nitriloacetic acid (NTA) resin. Each reaction was performed in a total volume of 100 μL, containing 50 mM Tris-HCl, 150 mM NaCl, and 5 mM CaCl2 at pH 7.5, along with 17 μg of purified SrtA and 250 ng of synthetic substrate (Dabcyl-LPETG-Edans). The sample compounds were added to each reaction mixture with the solvent DMSO (final concentration, 1%). After 1 h of incubation at 37°C, the reactions were quantified based on fluorometric intensity (350 nm excitation and 495 nm emission wavelengths) using a microplate reader (FLx800, BioTek Instruments, Winooski, VT). Triphasiol was used as a positive control for the SrtA inhibitor.\nRecombinant SrtA protein derived from S. mutans OMZ65 was prepared from an extract of E. coli transformant using Ni-NTA affinity chromatography. SrtA enzyme activities were measured through a fluorophotometric method using synthetic peptide substrate containing the LPETG motif. […] As SrtA inhibitors may act as anti-infective agents and disrupt bacterial infectiousness without impacting bacterial viability, the MICs of the isolated compounds were evaluated to identify possible effects on S. mutans aggregation, adhesion, and biofilm formation on solid surfaces."}, "[1]": {"system": "SrtA (from strain ATCC25175)", "parameters": "method as in PMID 24154653", "conditions": "cited from earlier work"}, "SrtA S. mutans OMZ65": {"system": "SrtA S. mutans OMZ65", "parameters": "method as in PMID 25746812", "conditions": "read-out: IC50, SrtA inhibitors against S. mutans OMZ65; cited from earlier work"}, "S. mutans": {"system": "S. mutans", "assay": "Biofilm formation assay (polystyrene plate and resin teeth, safranin staining)", "assay_type": "cell-based, Streptococcus mutans", "conditions": "24 h", "description": "The effect of SrtA inhibition on bacterial biofilm formation was investigated using the polystyrene plate and resin teeth model according to a previously described method. Wild-type S. mutans and srtA mutants were inoculated aerobically into 5 mL of BHI broth at 37°C. Cultures in BHI broth containing 0.1% sucrose (final concentration 5 × 10^5 CFU/mL) were incubated with or without test compounds on 96-well polystyrene plates or with resin teeth (Endura, Shofu Inc., Kyoto, Japan) at 37°C for 24 h under aerobic condition. Biofilms formed on the plate and resin teeth were washed twice with distilled water and then stained with 0.1% safranin for 30 s. After three further washes, the safranin-bound biofilms on plates were dissolved with 30% acetic acid (v/v aqueous solution) and the intensity of absorbance at 530 nm wavelength, indicating safranin, was measured. Biofilms on resin teeth was also washed three times and photographed.\nBacterial adherence and aggregation are initial steps in the biofilm formation process. Through interruption of SrtA enzyme activity, biofilm formation by S. mutans could also be disrupted. To investigate the effect of compound 1 on biofilm formation of S. mutans, the biofilm biomasses of NG8 and srtA mutants formed over 24 h on 96-well plates and resin teeth were assessed through staining with 0.1% safranin.\nFigure 5. Inhibition of Streptococcus mutans biofilm formation by compound 1. Biofilm formation assays were performed using a polystyrene 96-well plate (A) and artificial resin teeth (B) at 37°C for 24 h under aerobic condition. […] 0.1% NaF was used as a positive control. Data are presented as the mean ± SD of three independent experiments (* p < 0.05, ** p < 0.01, and *** p < 0.001 based on Student’s t-test)."}, "S. mutans NG8 [2]": {"system": "S. mutans NG8", "assay": "Saliva-induced aggregation assay", "assay_type": "cell-based, Streptococcus mutans", "description": "The effect of SrtA inhibitor on bacterial cell aggregation induced by human saliva was conducted according to a previously documented procedure. S. mutans NG8 (wild-type), srtA-deletion mutant (ΔsrtA), and srtA-complemented mutant (ΔsrtA+srtA) were used in this study. These strains were kindly provided by Prof. S. F. Lee (Dalhousie University, Nova Scotia, Canada) and inoculated into Todd Hewitt broth and incubated for 16 h at 37°C, washed twice with KPBS (137 mM NaCl, 2.7 mM KCl, 6.5 mM Na2HPO4, 1.5 mM KH2PO4, pH 7.2), and resuspended in KPBS to an approximate optical density of 1.0 at 700 nm. Assay mixtures consisted of 400 μL of cells, 100 μL of fresh clarified saliva, and diluted test compounds. Saliva was provided from one volunteer (a unmarried person) who had no dental health issues. The collected non-stimulated saliva was clarified by centrifugation (7,000 × g, 10 min, 4°C) and sterilized by membrane filtration (0.2 μm pore size). The mixtures were gently mixed through inversion and incubated aerobically at 37°C for 2 h. Turbidity at 700 nm was recorded every 20 min.\nUsing a combined bioactivity test, we subsequently examined the inhibitory effects of compound 1 on saliva-induced aggregation of S. mutans (Figure 3). […] Aggregation levels were measured based on the decrease of turbidity at 700 nm. […]"}, "S. mutans NG8 [3]": {"system": "S. mutans NG8", "assay": "Adherence assay on saliva-coated hydroxyapatite beads", "assay_type": "cell-based, Streptococcus mutans", "conditions": "90 min", "procedure": "The effect of SrtA inhibition on bacterial adherence was evaluated using saliva-coated hydroxyapatite beads (s-HAs) [11, 25]. A total of 30 μg of s-HAs (diameter, 80 µm; Bio-Rad, Hercules, CA) were coated with fresh saliva prepared as mentioned above for 1 h at room temperature and rinsed twice with 0.01 M potassium phosphate buffer (KPB; pH 7.0). S. mutans NG8 (wild type), srtA-deletion mutant (ΔsrtA), and srtA-complemented mutant (ΔsrtA + srtA) [11] were inoculated into 5 mL of BHI broth, incubated aerobically for 16 h at 37°C, and diluted to about 10^8 CFU/mL. […] After three rounds of washing with KPB, attachment between s-HAs and S. mutans cells was disrupted through sonication (50 W, 30s) in KPB. Dispersed cells were spread on Mitis-Salivarius agar (Difco, Detroit, MI) plates containing 3.2 mg/mL bacitracin. The number of colonies formed was determined after incubation for 48 h at 37°C.\nIn the present study, the role of SrtA inhibitors in modulating cell-surface-related properties of S. mutans was investigated in terms of adherence.\nAttachment of S. mutans NG8, srtA-deletion mutant (ΔsrtA), and srtA-complemented mutant (ΔsrtA+srtA) was induced for 90 min at 37°C under aerobic condition, followed by dispersal via sonication (50 W, 30s) after three washes, and then colony-forming unit counting on Mitis-Salivarius agar (3.2 mg/mL bacitracin) after incubation for 48 h at 37°C. […]"}, "[4]": {"system": "SrtA derived from S. mutans UA159", "conditions": "cited from earlier work"}, "SrtA": {"system": "SrtA", "conditions": "read-out: IC50, SrtA activity; cited from earlier work"}, "[5]": {"system": "S. aureus ATCC6537p-derived SrtA", "parameters": "method as in PMID 16010573", "conditions": "cited from earlier work"}, "[6]": {"conditions": "SrtA IC50, recombinant SrtA from S. mutans OMZ65, 1 h, 37°C"}}, "note": "“Also recorded” adds a separate entry of the source. Like-named read-outs stand apart in the source and are kept apart here.", "data": [{"molecule": "COc1cc(O)cc(O)c1C(C)=O", "note": "[Compound 4, 4,6-dihydroxy-2-methoxyacetophenone]", "values": [{"measurement": "MIC", "setting": "S. mutans OMZ65; Streptococcus mutans", "result": "> 300", "unit": "µM"}, {"measurement": "SrtA inhibitory activity (in words)", "setting": "S. mutans SrtA; S. mutans SrtA", "result": "weak inhibitory activities"}, {"measurement": "IC50", "setting": "S. mutans SrtA; [6]", "result": 151, "unit": "µM"}, {"measurement": "IC50", "setting": "S. mutans SrtA; pIC50, pIC50 = −log10(IC50), S. mutans SrtA", "result": 155, "unit": "µM"}]}, {"molecule": "O=c1c(O)c(-c2ccc(O)c(O)c2)oc2cc(O)cc(O)c12", "note": "[Compound 3, quercetin]", "values": [{"measurement": "MIC", "setting": "S. mutans OMZ65; Streptococcus mutans", "result": "> 300", "unit": "µM"}, {"measurement": "SrtA inhibitory activity (in words)", "setting": "S. mutans SrtA; S. mutans SrtA", "result": "weak inhibitory activities"}]}, {"molecule": "C[C@@H]1O[C@@H](O[C@H]2C(=O)c3c(O)cc(O)cc3O[C@@H]2c2ccc(O)c(O)c2)[C@H](O)[C@H](O)[C@H]1O", "note": "[Astillbin]", "values": [{"measurement": "IC50, SrtA (from strain ATCC25175)", "setting": "[1]", "result": 7.5, "unit": "µg/mL"}, {"measurement": "IC50", "setting": "[1]; value in brackets", "result": 16.7, "unit": "µM"}]}, {"molecule": "(−)-rosmarinic acid", "values": [{"measurement": "IC50", "setting": "SrtA S. mutans OMZ65", "result": 20.1, "unit": "µM"}]}, {"molecule": "CC1(C)S[C@@H]2[C@H](NC(=O)[C@H](N)c3ccccc3)C(=O)N2[C@H]1C(=O)O", "note": "[Ampicillin, reference compound]", "values": [{"measurement": "MIC", "setting": "S. mutans OMZ65; Streptococcus mutans", "result": 0.4, "unit": "µM"}]}, {"molecule": "CC(C)c1cc(=O)c(O)ccc1O", "note": "[Compound 5, 5-hydroxyhinokitiol]", "values": [{"measurement": "MIC", "setting": "S. mutans OMZ65; Streptococcus mutans", "result": "> 300", "unit": "µM"}, {"measurement": "IC50", "setting": "S. mutans SrtA; [6]", "result": 51.7, "unit": "µM"}]}, {"molecule": "COc1cc(C[C@H]2COC(=O)[C@@H]2Cc2ccc(O)c(OC)c2)ccc1O", "note": "[Compound 2, (−)-matairesinol]", "values": [{"measurement": "MIC", "setting": "S. mutans OMZ65; Streptococcus mutans", "result": "> 300", "unit": "µM"}, {"measurement": "IC50", "setting": "S. mutans SrtA; [6]", "result": "> 300", "unit": "µM"}]}, {"molecule": "[F-].[Na+]", "note": "[NaF, reference compound]", "values": [{"measurement": "effect on S. mutans biofilm formation (positive control)", "setting": "S. mutans; 0.1%", "result": "potent inhibitory effects"}]}, {"molecule": "COc1cc(C[C@H]2COC(=O)[C@@H]2Cc2cc(O)c(O)c(OC)c2)cc(O)c1O", "note": "[Compound 1, 3’,3”-dihydroxy-(−)-matairesinol]", "values": [{"measurement": "saliva-induced cell aggregation", "setting": "S. mutans NG8 [2]; 4× the IC50, without sucrose", "result": "significantly repressed"}, {"measurement": "saliva-induced aggregation of NG8 cells (turbidity at 700 nm)", "setting": "S. mutans NG8 [2]; tested at 0×, 1×, 2× and 4× the SrtA IC50 (16.1, 32.2, 64.4 μM), 2 h, 37°C", "result": "markedly reduced the aggregation of NG8 cells in a dose-dependent manner; also recorded: markedly reduced the aggregation capacity of the bacterial cells in a dose-dependent manner"}, {"measurement": "MIC", "setting": "S. mutans OMZ65", "result": ">300", "unit": "µM"}, {"measurement": "MIC", "setting": "S. mutans OMZ65; Streptococcus mutans", "result": "> 300", "unit": "µM"}, {"measurement": "IC50", "setting": "S. mutans SrtA; [6]", "result": 16.1, "unit": "µM"}, {"measurement": "biofilm formation on 96-well polystyrene plates", "setting": "S. mutans; 4× the IC50 (64.4 μM), 0.1% sucrose", "result": "significantly reduced"}, {"measurement": "concentrations disrupting biofilm formation on the surface of resin teeth", "setting": "S. mutans; 0.1% sucrose, safranin staining", "result": "higher than 32.2 μM"}, {"measurement": "adherence of S. mutans to s-HAs vs control (NG8)", "setting": "S. mutans NG8 [3]; 1× IC50 (16.1 μM)", "result": "not significantly different"}, {"measurement": "decrease of bacterial adhesion to s-HAs compared to the control group", "setting": "S. mutans NG8 [3]; 4× the IC50 (64.4 μM)", "result": "about 60%"}]}, {"molecule": "COc1cc(/C=C/C(=O)CC(=O)/C=C/c2ccc(O)c(OC)c2)ccc1O", "note": "[curcumin]", "values": [{"measurement": "IC50", "setting": "[4]", "result": 10.2, "unit": "µM"}]}, {"molecule": "C/C(=C\\Cc1ccc(=O)c(O)cc1C(C)C)CO", "note": "[Compound 6, juniperone A]", "values": [{"measurement": "MIC", "setting": "S. mutans OMZ65; Streptococcus mutans", "result": 257, "unit": "µM"}, {"measurement": "IC50", "setting": "S. mutans SrtA; [6]", "result": 62.5, "unit": "µM"}]}, {"molecule": "O=c1c(O)c(-c2ccc(O)cc2O)oc2cc(O)cc(O)c12", "note": "[morin]", "values": [{"measurement": "IC50", "setting": "[4]", "result": 27.2, "unit": "µM"}]}, {"molecule": "O=c1c(O)c(-c2cc(O)c(O)c(O)c2)oc2cc(O)cc(O)c12", "note": "[myricetin]", "values": [{"measurement": "IC50", "setting": "SrtA", "result": 48.7, "unit": "µM"}]}, {"molecule": "CC(C)C(=O)Cc1c(OCC(O)C(C)(C)O)ccc2ccc(=O)oc12", "note": "(stereo not drawn) [Triphasiol, reference compound]", "values": [{"measurement": "IC50", "setting": "[5]", "result": 34.5, "unit": "µM"}, {"measurement": "pIC50", "setting": "S. mutans SrtA; pIC50 = −log10(IC50), S. mutans SrtA", "result": 4.60}, {"measurement": "IC50", "setting": "S. mutans SrtA; recombinant SrtA from S. mutans OMZ65, 1 h, 37°C, read-out: SrtA IC50", "result": 25.3, "unit": "µM"}]}, {"molecule": "O=C(O)/C=C/c1ccc(O)c(O)c1", "note": "[caffeic acid]", "values": [{"measurement": "IC50", "setting": "SrtA S. mutans OMZ65", "result": 20.2, "unit": "µM"}]}]}
